The subject of this assay is Histamin-H2-Rezeptoren. Description: Inhibition of histamine-stimulated gastric acid secretion in the conscious fistula cat. It counts as in vivo. To be noted: wache Fistelkatze; Stimulator: Histamin; i.V.

Structures are written as SMILES.

Source text: Weiterhin kann die H2-antagonistische Wirkung an wachen Heidennain-Pouch-Hunden nach der Methode von Black et al., "Nature" 236, 385 (1972) und an wachen Fistelkatzen gezeigt werden.

With `CN=C(NC#N)NCCSCc1nc[nH]c1C` [CIMETIDIN, Cimetidin], the ID50 is 1,4 umol/k^g.

For the origin of these results see EP0181471A1, “Pyrazole derivatives, process for their preparation and medicaments containing them” (LUDWIG HEUMANN & CO GMBH, priority 1984, dated 1986).
